Format in all cases: biochemical
In test [1] the target is T1, human FLT4 (Homo sapiens, UniProt P35916).
T1 construct: a construct expressing the human FLT4 (789-1207) with an amino terminal GST tag; host or cells: Sf9 insect cells (baculovirus)
Kind of test: FLT4 kinase assay (DELFIA enzyme inhibition). In outline:
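Read-out is DELFIA: biotinylated MET Tyr1253-derived peptide captured on Neutravidin, phosphotyrosine detected by Eu-antibody time-resolved fluorescence. Enzyme is Sf9-expressed GST-FLT4 (789-1207), reacting 30 min at room temperature before EDTA stop. IC50 derived from plotted % inhibition.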

For test [2], the target named is T2, human Aurora A (Homo sapiens, UniProt O14965).
T2 construct: Histidine tag (N); host or cells: Sf9 insect cells (baculovirus)
T2 sequence (O14965 1-403): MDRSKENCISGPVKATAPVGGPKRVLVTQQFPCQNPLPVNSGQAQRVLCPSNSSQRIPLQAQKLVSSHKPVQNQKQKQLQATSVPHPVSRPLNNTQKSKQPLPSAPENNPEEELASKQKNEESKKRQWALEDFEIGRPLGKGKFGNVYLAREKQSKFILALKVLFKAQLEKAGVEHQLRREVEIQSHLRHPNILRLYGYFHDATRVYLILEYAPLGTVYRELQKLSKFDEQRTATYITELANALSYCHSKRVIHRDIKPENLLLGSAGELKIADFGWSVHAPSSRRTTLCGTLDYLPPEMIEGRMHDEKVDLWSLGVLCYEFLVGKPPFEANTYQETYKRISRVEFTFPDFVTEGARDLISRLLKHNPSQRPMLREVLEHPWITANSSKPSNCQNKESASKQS
Kind of test: Aurora A kinase assay (DELFIA enzyme inhibition). A digest of the protocol:
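DELFIA read-out (time-resolved Eu fluorescence, 620 nm emission) after Neutravidin capture of biotinylated peptide substrate and antibody detection. Reaction: Ni-agarose-purified Aurora A, 30 min at room temperature, stopped with 100 mM EDTA.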

Test [3] addresses T3, human FLT3 (Homo sapiens, UniProt P36888).
T3 construct: a construct expressing the human FLT3 (564-993) with an amino terminal GST tag; host or cells: Sf9 insect cells (baculovirus)
T3 sequence (P36888 564-993): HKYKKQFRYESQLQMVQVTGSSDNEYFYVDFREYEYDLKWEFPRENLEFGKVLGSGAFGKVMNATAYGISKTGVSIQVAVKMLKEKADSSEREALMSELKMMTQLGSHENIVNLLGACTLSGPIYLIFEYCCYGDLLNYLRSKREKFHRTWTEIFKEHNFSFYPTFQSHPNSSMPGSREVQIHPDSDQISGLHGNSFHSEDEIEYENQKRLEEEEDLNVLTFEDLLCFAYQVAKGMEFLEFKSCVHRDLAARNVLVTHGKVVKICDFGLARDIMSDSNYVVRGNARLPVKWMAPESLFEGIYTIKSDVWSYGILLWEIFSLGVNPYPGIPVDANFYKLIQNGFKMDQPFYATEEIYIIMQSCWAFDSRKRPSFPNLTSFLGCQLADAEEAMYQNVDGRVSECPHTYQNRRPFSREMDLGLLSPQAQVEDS
The experiment in a line: FLT3 kinase assay (DELFIA enzyme inhibition). As to the method:
A GST-kinase fusion protein of 70 KDa was produced using sf9 baculovirus expression system, with a construct expressing the human FLT3 (564-993) with an amino terminal GST tag. The protein was purified by one-step affinity chromatography using glutathione-agarose.
FLT3 enzyme activity is determined using a Dissociation Enhanced Lanthanide Fluorescent Immunoassay (DELFIA) with a peptide substrate derived from the Gastrin Precursor (Tyr 87) peptide […] with a core sequence: EAYGW.
The amount of phosphorylated peptide produced is detected by means of a phospho-Tyrosine specific Europium-labelled antibody using Time-Resolved Fluorescence at Excitation 360-35 nm and Emission 620-35 nm.
Assay reactions are set up in a 25 uL final volume on a 96 well plate. […] The reaction is allowed to proceed for 30 minutes at room temperature before stopping with 100 μL Stop solution comprising of 100 mM EDTA, 1×BSA blocker in TBS (Perbio) and 0.05% Surfact-Amps20 (Perbio).
The stopped reaction is transferred to a black 96-well Neutravidin-coated plate (Perbio) and incubated for 30 minutes to capture the biotinylated peptide substrate. After washing wells 3 times with 200 uL TBS/T buffer, Anti-Phospho-Tyr-100 antibody labelled with Eu—N1 (Perkin Elmer AD0159) is added to all wells for 60 minutes at room temperature. After a repeat washing step, DELFIA Enhancement solution (Perkin Elmer) is added to all wells for 5 minutes and the fluorescence measured on a plate reader Analyst HT (Molecular Devices).
The % inhibition of the activity is calculated and plotted in order to determine the concentration of test compound required to inhibit 50% of the enzyme activity (IC50).

Each structure is given as a SMILES string. Like-named read-outs stand apart in the source and are kept apart here.

T1 sequence (P35916 789-1207): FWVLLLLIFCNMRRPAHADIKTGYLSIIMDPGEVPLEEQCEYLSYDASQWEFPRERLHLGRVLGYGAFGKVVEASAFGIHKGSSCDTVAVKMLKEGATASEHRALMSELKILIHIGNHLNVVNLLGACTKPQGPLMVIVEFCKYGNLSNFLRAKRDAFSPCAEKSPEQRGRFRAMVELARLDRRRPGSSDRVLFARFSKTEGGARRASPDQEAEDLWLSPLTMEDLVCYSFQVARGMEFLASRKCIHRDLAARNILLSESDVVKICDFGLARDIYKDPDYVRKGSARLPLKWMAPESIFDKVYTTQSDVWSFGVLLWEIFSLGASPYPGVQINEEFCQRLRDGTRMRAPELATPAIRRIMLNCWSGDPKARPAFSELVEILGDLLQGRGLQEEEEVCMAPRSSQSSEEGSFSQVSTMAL

In the case of `NC(=O)c1nc(-c2c(F)cccc2F)oc1Nc1ccc(C(=O)N2CCCC(O)C2)cc1` (stereo not shown) [Example U-15, 2-(2,6-difluorophenyl)-5-(4-(3-hydroxypiperidine-1-carbonyl)phenylamino)oxazole-4-carboxamide], the IC50 in test [1] (read-out: FLT4 IC50), in test [2] (read-out: Aurora A IC50) and in test [3] was less than 10 µM throughout.

For the compound `NC(=O)c1nc(-c2c(F)cccc2F)oc1Nc1ccc(CN2CCCCC2)cc1` [Example Q-56, 2-(2,6-difluorophenyl)-5-(4-(piperidin-1-ylmethyl)phenylamino)oxazole-4-carboxamide], the IC50 in test [1] (read-out: FLT4 IC50), in test [2] (read-out: Aurora A IC50) and in test [3] was less than 10 µM in each case.

Consider `CN(CCOc1ccc(-c2oc(-c3c(F)cccc3F)nc2C(N)=O)cc1)Cc1ccccc1` [Example S-11, 5-(4-(2-(benzyl(methyl)amino)ethoxy)phenyl)-2-(2,6-difluorophenyl)oxazole-4-carboxamide], for which the half-maximal inhibitory concentration (IC50) in test [1] (read-out: FLT4 IC50) was less than 10 µM; in test [2] (read-out: Aurora A IC50), less than 100 µM; in test [3], less than 10 µM.

Take `NC(=O)c1nc(-c2c(F)cccc2F)oc1-c1ccc(OCC(O)CN2CCC(O)CC2)cc1` (stereo not shown) [Example T-4, 2-(2,6-difluorophenyl)-5-(4-(2-hydroxy-3-(4-hydroxypiperidin-1-yl)propoxy)phenyl)oxazole-4-carboxamide]: the 50% inhibitory concentration (IC50) in test [1] (read-out: FLT4 IC50), in test [2] (read-out: Aurora A IC50) and in test [3] was less than 10 µM each time.

For the compound `NC(=O)c1nc(-c2ccccc2F)oc1-c1ccc(OCCN2CCCCC2)cc1` [Example F-26, 2-(2-fluorophenyl)-5-(4-(2-(piperidin-1-yl)ethoxy)phenyl)oxazole-4-carboxamide], the IC50 in test [1] (read-out: FLT4 IC50), in test [2] (read-out: Aurora A IC50) and in test [3] was less than 10 µM each time.

For the compound `COc1ccc(-c2oc(-c3cccc(C(F)(F)F)c3)nc2C(N)=O)cc1` [Example N-8, 5-(4-methoxyphenyl)-2-(3-(trifluoromethyl)phenyl)oxazole-4-carboxamide], the IC50 in test [2] (read-out: Aurora A IC50) and in test [3] was less than 100 µM throughout.

On to `NC(=O)c1nc(-c2c(F)cccc2F)oc1-c1ccc(OCCN2CCC[C@H]2CO)cc1` [Example S-5, (S)-2-(2,6-difluorophenyl)-5-(4-(2-(2-(hydroxymethyl)pyrrolidin-1-yl)ethoxy)phenyl)oxazole-4-carboxamide], for which the results for the IC50 in test [1] (read-out: FLT4 IC50), in test [2] (read-out: Aurora A IC50) and in test [3] were less than 10 µM, less than 10 µM and less than 100 µM, respectively.

Take `NC(=O)c1nc(-c2c(F)cccc2F)oc1-c1ccccn1` [Example F-2, 2-(2,6-difluorophenyl)-5-(pyridin-2-yl)oxazole-4-carboxamide]: the IC50 in test [1] (read-out: FLT4 IC50) and in test [3] was less than 100 µM in each case.

Turning to `NC(=O)c1nc(-c2c(Cl)cccc2Cl)oc1Nc1ccc(N2CCNCC2)cc1` [Example Q-35, 2-(2,6-dichlorophenyl)-5-(4-(piperazin-1-yl)phenylamino)oxazole-4-carboxamide], the IC50 in test [1] (read-out: FLT4 IC50), in test [2] (read-out: Aurora A IC50) and in test [3] was less than 10 µM each time.

`CN1CCN(CCOc2ccc(-c3oc(-c4c(F)cccc4N4CCN(C)CC4)nc3C(N)=O)cc2)CC1` [Example S-2, 2-(2-fluoro-6-(4-methylpiperazin-1-yl)phenyl)-5-(4-(2-(4-methylpiperazin-1-yl)ethoxy)phenyl)oxazole-4-carboxamide]: the IC50 in test [2] (read-out: Aurora A IC50) and in test [3] was less than 100 µM throughout.

Take `COc1ccc(-c2oc(Nc3cccc(OC)c3)nc2C(N)=O)cc1` [Example R-3, 5-(4-methoxyphenyl)-2-(3-methoxyphenylamino)oxazole-4-carboxamide]: the IC50 in test [2] (read-out: Aurora A IC50) is less than 100 µM; in test [3], less than 10 µM.

Consider `COc1ccc(-c2oc(-c3ccc(S(C)(=O)=O)cc3)nc2C(N)=O)cc1` [Example M-11, 5-(4-methoxyphenyl)-2-(4-(methylsulfonyl)phenyl)oxazole-4-carboxamide], for which the IC50 in test [3] was less than 100 µM.

As to `COc1ccc(-c2oc(-c3ccc(C#N)cc3)nc2C(N)=O)cc1` [Example M-9, 2-(4-cyanophenyl)-5-(4-methoxyphenyl)oxazole-4-carboxamide], the IC50 in test [1] (read-out: FLT4 IC50) and in test [3] was less than 100 µM throughout.

Regarding `CN(C)c1ccc(-c2oc(-c3c(F)cccc3F)nc2C(N)=O)cn1` [Example F-7, 2-(2,6-difluorophenyl)-5-(6-(dimethylamino)pyridin-3-yl)oxazole-4-carboxamide], the IC50 was less than 10 µM in test [1] (read-out: FLT4 IC50) and less than 100 µM in test [3].

`NC(=O)c1nc(-c2c(F)cccc2F)oc1-c1ccc(N2CCOCC2)nc1` [Example F-19, 2-(2,6-difluorophenyl)-5-(6-morpholinopyridin-3-yl)oxazole-4-carboxamide]: the IC50 in test [1] (read-out: FLT4 IC50) and in test [3] was less than 100 µM in each case.

`COc1ccc(-c2oc(-c3cccc(NC(C)=O)c3)nc2C(N)=O)cc1` [Example N-3, 2-(3-acetamidophenyl)-5-(4-methoxyphenyl)oxazole-4-carboxamide]: the values for the IC50 in test [1] (read-out: FLT4 IC50) and in test [3] were less than 10 µM and less than 100 µM, respectively.

Consider `NC(=O)c1nc(-c2c(F)cccc2F)oc1Nc1ccc(N2CCOCC2)cc1` [Example Q-1, 2-(2,6-difluorophenyl)-5-(4-morpholinophenylamino)oxazole-4-carboxamide], for which the IC50 in test [2] (read-out: Aurora A IC50) and in test [3] was less than 10 µM in each case.

Take `COc1ccc(Nc2oc(-c3c(F)cccc3F)nc2C(N)=O)cc1` [Example P-1, 2-(2,6-difluorophenyl)-5-(4-methoxyphenylamino)oxazole-4-carboxamide]: the IC50 in test [1] (read-out: FLT4 IC50) and in test [3] was less than 10 µM each time.

With `COc1ccc(-c2oc(-c3ccccc3)nc2C(N)=O)cc1` [Example M-2, 5-(4-methoxyphenyl)-2-phenyloxazole-4-carboxamide], the figures for the IC50 in test [1] (read-out: FLT4 IC50) and in test [3] were less than 10 µM and less than 100 µM, respectively.

Consider `NC(=O)c1nc(-c2c(F)cccc2F)oc1Nc1ccc(C(=O)NC2CN3CCC2CC3)cc1` (stereo not shown) [Example U-10, 2-(2,6-difluorophenyl)-5-(4-(quinuclidin-3-ylcarbamoyl)phenylamino)oxazole-4-carboxamide], for which the IC50 in test [1] and in test [2] was less than 10 µM throughout.

Take `NC(=O)c1nc(-c2c(F)cccc2F)oc1Nc1ccc(N2CCC(N)CC2)cc1` [Example Q-17, 5-(4-(4-aminopiperidin-1-yl)phenylamino)-2-(2,6-difluorophenyl)oxazole-4-carboxamide]: the IC50 in test [1] (read-out: FLT4 IC50) and in test [2] (read-out: Aurora A IC50) was less than 10 µM in each case.

For the compound `COc1ccc(-c2nc(-c3csc4ccccc34)[nH]c2C(N)=O)cc1` [Example B-3, 2-(benzo[b]thiophen-3-yl)-4-(4-methoxyphenyl)-1H-imidazole-5-carboxamide], the IC50 in test [1] (read-out: FLT4 IC50) and in test [2] (read-out: Aurora A IC50) was less than 100 µM throughout.

As to `NC(=O)c1nc(Nc2ccnn2Cc2ccccc2)oc1-c1ccc(N2CCNCC2)cc1` [Example R-18, 2-(1-benzyl-1H-pyrazol-5-ylamino)-5-(4-(piperazin-1-yl)phenyl)oxazole-4-carboxamide], the IC50 in test [1] (read-out: FLT4 IC50) and in test [2] (read-out: Aurora A IC50) was less than 10 µM each time.

As usually defined, the IC50 is the concentration that gives 50% inhibition.

These data come from patent US9187465B2, “Oxazole tyrosine kinase inhibitors” (Sareum Limited, priority 2007, dated 2015).
